In US10967029B2, “Method of using Cistanche tubulosa extract to prevent, slow down, or treat an eye disease caused by oxidative stress” (Sinphar Pharmaceutical Co., Ltd., priority 2014, dated 2021):
≈ marks a conversion by molar mass, not a printed value. Where two headings read alike, the source gives them in different places.

Tests used:
RPE cells [1] = type: cell-based; settings: 0.1 mM H2O2
Experimental: (§1) The cell culturing comprises the following steps. • 1. RPE cell clones were taken out from anti-frozen tubes in liquid nitrogen and quickly moved to a sterile hood after thawed in 37° C. water bath for 1 minute. RPE cell clones were taken out and placed in 10 cm dishes having 10 mL DMEM (Dulbecco's Modified Eagle Medium) therein. 10% inactivated fetal bovine serum (FBS), 2 mM L-glutamine, 100 U/mL penicillin, and 100 µg/mL streptomycin were added into the DMEM. • 2. The dishes were placed in a 37° C. incubator and cultured in conditions of a mixture gas of 95% air and 5% CO2, as well as 70% humidity. The old mediums were replaced by fresh mediums every 3 days. Serum-free DMEM was used instead of the mediums before performing experiments. • 3. When cells proliferated to nearly saturation, the numbers of cells were counted by a cell counter. […] Since RPE cells are attachment type cells, the medium containing the cells was transferred into 15 mL centrifugation tubes and then centrifuged at 72 g for 5 mines at room temperature when the medium was replaced. After centrifugation, the supernatant was removed and then fresh medium was added for culturing.
(§2) Before experiment, the medium was replaced by serum-free medium. Fixed quantity of RPE cells (2×10^5 cells/mL) were respectively placed in 96 wells of a plate. […] Next, different concentrations of oxidative stress inducer were added to treat the cells. […] The blue light having a wavelength of 480 nm and an illuminance of 350 lux was emitted by a blue light-emitting-diode (LED). Subsequently after treated by irradiating with blue light for 7 days or oxidative stress inducer for 24 hours, 0.5 mg/mL of MTT was added and reacted at 37° C. for 2 hours. Afterwards, 200 μL DMSO was added to each well. After slight mixing, the plate was vibrated in the dark for 10 minutes. After completely dissolving the residual cells, the enzyme immunoassay analyzer was used to detect the absorbance of each well. The cells untreated by oxidative stress inducers and embodiments were used as the control group. […]

RPE cells [2] = settings: for most effective action concentration range to t-BHP: t-BHP-induced cytotoxicity
Experimental: as §1, §2

RPE cells [3] = test: Cell viability and growth measurement of RPE cells (MTT assay), cytotoxicity test; type: cell-based; settings: cytotoxicity to RPE cells, 24 hours
Experimental: The cell culturing comprises the following steps. • 1.
Before experiments, the medium was replaced by serum-free medium. […] After placed in an incubator, the cells were cultured for 24 hours after treated by various concentrations of embodiments 1-5. Next, 1.0 mg/mL 3-(4,5-Dimethylthiazol-2-yl)-2,5-diphenyltetrazolium bromide (MTT) was added and reacted at 37° C. for 1 hour. Afterwards, 200 μL dimethyl sulfoxide (DMSO) was added into each well and shake in the dark at room temperature for 10 minutes after slight mixing. After the residual cells were completely dissolved, an enzyme immunoassay analyzer (MRX microplate reader, USA) was used to detect the 550 nm absorbance of each well. The cells untreated by embodiments were used as a control group after culturing for 24 hours.
One purpose of the example 1 is to test the cytotoxicity of the embodiments 1-5 to the RPE cells and the promotion of the embodiments 1-5 to the RPE cell growth. The mitochondrial enzyme of live cells can reduce the MTT to formazan of purple crystal dissolved by DMSO. In short, the metabolic activity of cells is used to determine whether cells are alive or not. The measured dissolving absorbance is equal to the cell viability. Therefore, the more the cells alive, the higher the absorbance. The calculating formula of the cell viability was shown below. Cell viability (%)=(light absorbance after cells treated by drugs for 24 hours/light absorbance of the control group after 24 hours)×100%
If P<0.05, it indicates a significant difference.
Referring to FIGS. 1-5, which are diagrams showing cytotoxicity testing results according to the instant disclosure respectively.

RPE cells [4] = test: Protective effect to blue light irradiation-induced cytotoxicity (MTT assay); settings: for most effective action concentration range to blue light irradiation: blue light-induced cytotoxicity
Experimental: as §1
Before experiment, the medium was replaced by serum-free medium. Fixed quantity of RPE cells (2×10^5 cells/mL) were respectively placed in 96 wells of a plate. […] Next, different concentrations of oxidative stress inducer were added to treat the cells. […] The blue light having a wavelength of 480 nm and an illuminance of 350 lux was emitted by a blue light-emitting-diode (LED). […] Afterwards, 200 μL DMSO was added to each well. After slight mixing, the plate was vibrated in the dark for 10 minutes. After completely dissolving the residual cells, the enzyme immunoassay analyzer was used to detect the absorbance of each well. The cells untreated by oxidative stress inducers and embodiments were used as the control group.
The statistical analysis was performed by Student's t-test or one way ANOVA. If P<0.05, it indicates a significant difference.
The concentrations of embodiment 3 were 15.625, 31.25, and 62.5 μg/mL. […]

RPE cells [5] = test: Protective effect to NaN3-induced cytotoxicity (MTT assay); settings: 10 mM NaN3 (viability about 50% without treatment); medium and high concentrations
Experimental: as §1, with “After centrifugation, the supernatant was removed and then fresh medium was added for culturing.” left out
Before experiment, the medium was replaced by serum-free medium. Fixed quantity of RPE cells (2×10^5 cells/mL) were respectively placed in 96 wells of a plate. […] After completely dissolving the residual cells, the enzyme immunoassay analyzer was used to detect the absorbance of each well. […]

Molecule | protection of cells from H2O2 damage (RPE cells [1]) | most effective action concentration range to t-BHP (RPE cells [2]) | IC25 (RPE cells [3]) [µg/mL] | IC50 (RPE cells [3]) [µg/mL] | IC75 (RPE cells [3]) [µg/mL] | cytotoxicity response at high concentration (RPE cells [2]) | cell viability (RPE cells [4]; 5 days, 31.25 µg/mL) | most effective action concentration range to blue light irradiation (RPE cells [4]) | IC50 (RPE cells [3]; read-out: IC50) [µg/mL] | cell viability (RPE cells [5]) [%]
echinacoside [Embodiment 2] | protected | between low and medium concentrations | 50 | 75 | 100 | – | – | – | – | –
C[C@@H]1O[C@@H](O[C@@H]2[C@@H](O)[C@H](OCCc3ccc(O)c(O)c3)O[C@H](CO)[C@H]2OC(=O)/C=C/c2ccc(O)c(O)c2)[C@H](O)[C@H](O)[C@H]1O [Embodiment 3, Acteoside] | protected | between low and medium concentrations | 31.25 (≈ 50 µM) | – | 125 (≈ 200 µM) | reasonable cytotoxicity responses were observed | above 90% | between low and medium concentrations | 62.5 (≈ 100 µM) | –
C[C@@H]1O[C@@H](O[C@@H]2[C@@H](O)[C@H](OCCc3ccc(O)c(O)c3)O[C@H](COC(=O)/C=C/c3ccc(O)c(O)c3)[C@H]2O)[C@H](O)[C@H](O)[C@H]1O [Embodiment 4, Isoacteoside] | – | – | 31.25 (≈ 50 µM) | – | 125 (≈ 200 µM) | – | – | between low and medium concentrations | 62.5 (≈ 100 µM) | ~100
Tubuloside A [Embodiment 5] | protected | – | 150 | 200 | 250 | – | – | – | – | ~100
